From ChEMBL document CHEMBL5705899 (Biochem J, 2014) come the findings set out here.

Assay [1] concerns the target Interleukin-1 receptor-associated kinase 4 (Homo sapiens) (UniProt Q9NWZ3). Put plainly: Inhibition of recombinant human N-terminal GST-tagged IRAK4 (140 to 460 residues) expressed in Escherichia coli assessed as remaining activity at 1 uM using MBP as substrate incubated for 30 mins in presence of [gamma-33P]ATP by filter binding method relative to control.
Assay [2] concerns the target MAP kinase-interacting serine/threonine-protein kinase 1 (Homo sapiens) (UniProt Q9BUB5). Put plainly: Inhibition of recombinant human N-terminal GST-tagged C-terminal His6-tagged MNK1 (2 to 424 residues) expressed in Escherichia coli assessed as remaining activity at 1 uM using eIF4E as substrate incubated for 30 mins in presence of [gamma-33P]ATP by filter binding method relative to control.

For assay [3], the system named is RAC-alpha serine/threonine-protein kinase (Homo sapiens), P31749 [S473D]. The assay can be described thus: Inhibition of recombinant human His6-tagged PKBalpha S473D mutant (118 to 480 residues) expressed in baculovirus infected Sf21 cells assessed as remaining activity at 1 uM using crosstide peptide as substrate incubated for 30 mins in presence of [gamma-33P]ATP by filter binding method relative to control.
Sequence of RAC-alpha serine/threonine-protein kinase (Homo sapiens), P31749 [S473D] (P31749 whole entry S473D, the tested form may be a part): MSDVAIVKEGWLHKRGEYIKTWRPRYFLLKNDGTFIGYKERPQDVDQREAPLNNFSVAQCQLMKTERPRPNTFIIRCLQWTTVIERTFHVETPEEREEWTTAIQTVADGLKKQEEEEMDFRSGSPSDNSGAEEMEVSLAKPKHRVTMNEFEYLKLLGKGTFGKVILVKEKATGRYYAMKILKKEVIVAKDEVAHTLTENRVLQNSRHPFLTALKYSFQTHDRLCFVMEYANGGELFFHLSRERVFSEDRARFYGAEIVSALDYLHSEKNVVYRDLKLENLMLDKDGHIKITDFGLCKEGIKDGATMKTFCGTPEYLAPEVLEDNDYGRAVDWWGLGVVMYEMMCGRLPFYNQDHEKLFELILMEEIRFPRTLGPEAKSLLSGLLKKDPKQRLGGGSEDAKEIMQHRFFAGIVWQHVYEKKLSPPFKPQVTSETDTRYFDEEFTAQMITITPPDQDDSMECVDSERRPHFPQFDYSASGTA

Assay [4] concerns the target MAP/microtubule affinity-regulating kinase 4 (Homo sapiens) (UniProt Q96L34). Put plainly: Inhibition of recombinant human N-terminal His6-tagged MARK4 (2 to 752 residues) expressed in baculovirus infected Sf21 cells assessed as remaining activity at 1 uM using KKKVSRSGLYRSPSMPENLNRPR as substrate incubated for 30 mins in presence of [gamma-33P]ATP by filter binding method relative to control.

Assay [5] concerns the target NUAK family SNF1-like kinase 1 (Homo sapiens) (UniProt O60285). The assay can be described thus: Inhibition of recombinant human N-terminal His6-tagged NUAK1 (2 to 660 residues) expressed in baculovirus infected Sf21 cells assessed as remaining activity at 1 uM using ALNRTSSDSALHRRR as substrate incubated for 30 mins in presence of [gamma-33P]ATP by filter binding method relative to control.

Assay [6] concerns the target Mitogen-activated protein kinase 8 (Homo sapiens) (UniProt P45983). The assay can be described thus: Inhibition of recombinant human His6-tagged JNK1 (1 to 384 residues) expressed in baculovirus infected Sf21 cells assessed as remaining activity at 1 uM using ATF2 as substrate incubated for 30 mins in presence of [gamma-33P]ATP by filter binding method relative to control.

The target in assay [7] is Homeodomain-interacting protein kinase 1 (Homo sapiens) (UniProt Q86Z02). Put plainly: Inhibition of recombinant human N-terminal GST-tagged HIPK1 (158 to 555 residues) expressed in Escherichia coli assessed as remaining activity at 1 uM using MBP as substrate incubated for 30 mins in presence of [gamma-33P]ATP by filter binding method relative to control.
Sequence of Homeodomain-interacting protein kinase 1 (Homo sapiens) (Q86Z02 whole entry, looked up, the tested form may be a part): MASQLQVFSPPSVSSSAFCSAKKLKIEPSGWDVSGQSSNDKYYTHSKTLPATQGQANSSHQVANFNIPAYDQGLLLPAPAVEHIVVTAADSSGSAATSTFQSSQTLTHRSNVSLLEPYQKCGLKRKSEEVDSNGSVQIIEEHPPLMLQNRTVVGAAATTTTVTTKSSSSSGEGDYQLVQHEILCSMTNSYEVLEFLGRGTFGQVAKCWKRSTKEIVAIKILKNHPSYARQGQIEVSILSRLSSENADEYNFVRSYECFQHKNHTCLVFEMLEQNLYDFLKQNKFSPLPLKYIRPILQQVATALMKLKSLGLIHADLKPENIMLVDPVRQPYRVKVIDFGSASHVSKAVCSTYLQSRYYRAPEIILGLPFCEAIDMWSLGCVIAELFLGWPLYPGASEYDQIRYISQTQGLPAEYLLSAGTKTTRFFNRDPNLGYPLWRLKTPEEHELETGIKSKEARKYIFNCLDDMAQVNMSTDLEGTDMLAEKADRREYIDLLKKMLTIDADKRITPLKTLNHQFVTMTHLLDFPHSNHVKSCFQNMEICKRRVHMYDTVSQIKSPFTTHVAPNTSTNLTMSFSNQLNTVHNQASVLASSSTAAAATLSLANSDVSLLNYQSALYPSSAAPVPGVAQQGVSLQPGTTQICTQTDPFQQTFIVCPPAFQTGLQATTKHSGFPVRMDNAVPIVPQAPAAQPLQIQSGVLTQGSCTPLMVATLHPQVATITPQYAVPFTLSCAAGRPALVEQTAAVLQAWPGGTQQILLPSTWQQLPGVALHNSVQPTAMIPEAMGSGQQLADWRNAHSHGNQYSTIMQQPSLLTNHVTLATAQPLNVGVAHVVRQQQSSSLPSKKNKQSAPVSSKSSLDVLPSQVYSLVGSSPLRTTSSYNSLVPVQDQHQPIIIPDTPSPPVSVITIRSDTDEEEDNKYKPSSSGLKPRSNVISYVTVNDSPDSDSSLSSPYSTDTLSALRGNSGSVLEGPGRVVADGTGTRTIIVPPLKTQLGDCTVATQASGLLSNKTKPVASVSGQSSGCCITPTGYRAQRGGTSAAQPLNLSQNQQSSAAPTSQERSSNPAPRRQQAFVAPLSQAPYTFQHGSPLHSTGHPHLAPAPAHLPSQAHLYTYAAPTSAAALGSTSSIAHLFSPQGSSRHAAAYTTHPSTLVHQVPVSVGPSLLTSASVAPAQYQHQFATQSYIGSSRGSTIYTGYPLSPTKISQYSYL
The target in assay [8] is Serine/threonine-protein kinase SIK2 (Homo sapiens) (UniProt Q9H0K1). The assay can be described thus: Inhibition of recombinant human N-terminal GST and HA-tagged SIK2 (2 to 926 residues) expressed in baculovirus infected Sf21 cells assessed as remaining activity at 1 uM using ALNRTSSDSALHRRR as substrate incubated for 30 mins in presence of [gamma-33P]ATP by filter binding method relative to control.
Sequence of Serine/threonine-protein kinase SIK2 (Homo sapiens) (Q9H0K1 whole entry, looked up, the tested form may be a part): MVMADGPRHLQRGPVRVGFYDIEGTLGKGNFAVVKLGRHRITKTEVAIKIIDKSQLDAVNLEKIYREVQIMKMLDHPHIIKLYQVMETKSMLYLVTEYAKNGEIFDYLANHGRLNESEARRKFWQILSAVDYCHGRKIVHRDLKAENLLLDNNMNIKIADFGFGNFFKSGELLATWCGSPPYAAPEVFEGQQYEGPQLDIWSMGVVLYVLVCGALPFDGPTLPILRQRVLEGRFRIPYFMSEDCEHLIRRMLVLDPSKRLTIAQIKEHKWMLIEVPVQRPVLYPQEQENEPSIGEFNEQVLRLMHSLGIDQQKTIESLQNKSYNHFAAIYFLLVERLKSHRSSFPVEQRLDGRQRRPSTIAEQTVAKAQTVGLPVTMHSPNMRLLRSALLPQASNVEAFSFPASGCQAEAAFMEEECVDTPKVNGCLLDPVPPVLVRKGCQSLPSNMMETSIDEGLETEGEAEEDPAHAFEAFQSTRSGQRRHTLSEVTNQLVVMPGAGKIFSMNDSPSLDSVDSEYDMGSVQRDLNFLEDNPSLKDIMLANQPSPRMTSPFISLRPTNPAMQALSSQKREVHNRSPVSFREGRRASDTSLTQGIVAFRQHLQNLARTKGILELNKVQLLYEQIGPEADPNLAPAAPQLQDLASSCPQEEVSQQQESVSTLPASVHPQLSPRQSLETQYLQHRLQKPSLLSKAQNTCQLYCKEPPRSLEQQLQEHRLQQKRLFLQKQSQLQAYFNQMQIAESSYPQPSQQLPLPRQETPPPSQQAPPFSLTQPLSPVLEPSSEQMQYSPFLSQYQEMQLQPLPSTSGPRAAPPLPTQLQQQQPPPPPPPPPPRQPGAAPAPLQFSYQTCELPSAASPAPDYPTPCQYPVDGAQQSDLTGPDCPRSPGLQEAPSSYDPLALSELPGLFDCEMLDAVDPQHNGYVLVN

The target of assay [9] is Serine/threonine-protein kinase Nek2 (Homo sapiens) (UniProt P51955). Put plainly: Inhibition of recombinant human N-terminal His6-tagged NEK2A (1 to 445 residues) expressed in baculovirus infected Sf21 cells assessed as remaining activity at 1 uM using RFRRSRRMI as substrate incubated for 30 mins in presence of [gamma-33P]ATP by filter binding method relative to control.
Sequence of Serine/threonine-protein kinase Nek2 (Homo sapiens) (P51955 whole entry, the tested form may be a part): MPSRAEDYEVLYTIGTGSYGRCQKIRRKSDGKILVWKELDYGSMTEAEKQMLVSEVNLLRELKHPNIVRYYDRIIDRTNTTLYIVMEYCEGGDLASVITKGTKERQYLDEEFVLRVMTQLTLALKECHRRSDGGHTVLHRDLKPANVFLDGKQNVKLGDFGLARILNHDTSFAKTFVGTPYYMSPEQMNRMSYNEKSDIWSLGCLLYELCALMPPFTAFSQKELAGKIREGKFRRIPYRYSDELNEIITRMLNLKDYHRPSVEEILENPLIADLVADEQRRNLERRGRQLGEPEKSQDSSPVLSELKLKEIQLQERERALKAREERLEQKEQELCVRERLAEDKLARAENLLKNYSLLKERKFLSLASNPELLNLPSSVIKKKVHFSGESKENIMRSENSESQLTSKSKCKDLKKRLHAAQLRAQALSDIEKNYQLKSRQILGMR

The target of assay [10] is Ephrin type-B receptor 4 (Homo sapiens) (UniProt P54760). The assay can be described thus: Inhibition of human EPHB4 at 1 uM using polyEY as substrate in presence of 33P-ATP by ProQinase assay.
The target of assay [11] is Ephrin type-A receptor 7 (Homo sapiens) (UniProt Q15375). Put plainly: Inhibition of human EPHA7 at 1 uM using polyEy as substrate in presence of 33P-ATP by ProQinase assay.
In assay [12] the target is Ephrin type-A receptor 8 (Homo sapiens) (UniProt P29322). The assay can be described thus: Inhibition of human EPHA8 at 1 uM using polyEy as substrate in presence of 33P-ATP by ProQinase assay.
In assay [13] the target is Aurora kinase C (Homo sapiens) (UniProt Q9UQB9). Put plainly: Inhibition of human AuroraC at 1 uM using bio-4xCHKT as substrate in presence of 33P-ATP by ProQinase assay.
Sequence of Aurora kinase C (Homo sapiens) (Q9UQB9 whole entry, the tested form may be a part): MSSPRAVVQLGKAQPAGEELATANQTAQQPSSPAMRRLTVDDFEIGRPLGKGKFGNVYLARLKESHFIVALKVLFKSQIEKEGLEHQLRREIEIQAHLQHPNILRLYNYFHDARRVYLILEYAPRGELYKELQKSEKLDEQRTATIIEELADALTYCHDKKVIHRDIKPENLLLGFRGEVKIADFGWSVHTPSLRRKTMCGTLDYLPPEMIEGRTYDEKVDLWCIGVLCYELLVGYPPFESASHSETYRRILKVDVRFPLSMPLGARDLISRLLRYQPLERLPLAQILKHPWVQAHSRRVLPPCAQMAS
Assay [14] has as its target Tyrosine-protein kinase SYK (Homo sapiens) (UniProt P43405). The assay can be described thus: Inhibition of human SYK (1 to 635 residues) at 1 uM using polyEY as substrate in presence of 33P-ATP by ProQinase assay.
In assay [15] the target is Tyrosine-protein kinase ABL2 (Homo sapiens) (UniProt P42684). Put plainly: Inhibition of human ABL2 at 1 uM using poly(Ala,Glu,Lys,Tyr) as substrate in presence of 33P-ATP by ProQinase assay.
In assay [16] the target is Ribosomal protein S6 kinase alpha-3 (Homo sapiens) (UniProt P51812). The assay can be described thus: Inhibition of human RPS6KA3 at 1 uM using bio-4xCHKT as substrate in presence of 33P-ATP by ProQinase assay.
Sequence of Ribosomal protein S6 kinase alpha-3 (Homo sapiens) (P51812 whole entry): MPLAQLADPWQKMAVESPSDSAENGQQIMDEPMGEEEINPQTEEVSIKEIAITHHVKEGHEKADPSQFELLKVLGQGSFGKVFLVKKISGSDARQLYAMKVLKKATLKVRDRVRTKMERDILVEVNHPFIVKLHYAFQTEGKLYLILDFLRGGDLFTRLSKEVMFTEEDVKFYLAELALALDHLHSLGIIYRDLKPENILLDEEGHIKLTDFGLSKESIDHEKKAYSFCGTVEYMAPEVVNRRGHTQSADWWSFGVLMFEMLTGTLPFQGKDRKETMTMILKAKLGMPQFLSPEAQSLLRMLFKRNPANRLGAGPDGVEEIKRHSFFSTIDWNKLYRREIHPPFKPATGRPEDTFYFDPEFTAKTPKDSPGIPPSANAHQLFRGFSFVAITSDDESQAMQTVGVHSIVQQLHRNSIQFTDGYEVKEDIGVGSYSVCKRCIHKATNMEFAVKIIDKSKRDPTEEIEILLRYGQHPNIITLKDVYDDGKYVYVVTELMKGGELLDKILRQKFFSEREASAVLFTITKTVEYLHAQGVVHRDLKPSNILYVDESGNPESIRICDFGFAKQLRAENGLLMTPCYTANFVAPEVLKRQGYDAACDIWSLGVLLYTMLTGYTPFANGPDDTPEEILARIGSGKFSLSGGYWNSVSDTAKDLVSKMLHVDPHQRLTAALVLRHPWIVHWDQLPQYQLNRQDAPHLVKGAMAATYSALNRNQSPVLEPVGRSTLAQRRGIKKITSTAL
The target in assay [17] is Mitogen-activated protein kinase 10 (Homo sapiens) (UniProt P53779). Put plainly: Inhibition of human JNK3 at 1 uM using ATF2 as substrate in presence of 33P-ATP by ProQinase assay.
Assay [18] addresses Serine/threonine-protein kinase SIK2 (Homo sapiens) (UniProt Q9H0K1). Put plainly: Inhibition of human SNF1LK2 at 1 uM using RBER-CHKtide as substrate in presence of 33P-ATP by ProQinase assay.
Assay [19] addresses Receptor-interacting serine/threonine-protein kinase 2 (Homo sapiens) (UniProt O43353). Put plainly: Inhibition of human RIPK2 at 1 uM using RBER-CHKtide as substrate in presence of 33P-ATP by ProQinase assay.
Assay [20] concerns the target Homeodomain-interacting protein kinase 3 (Homo sapiens) (UniProt Q9H422). Put plainly: Inhibition of human HIPK3 at 1 uM using RBER-CHKtide as substrate in presence of 33P-ATP by ProQinase assay.
Assay [21] concerns the target Glycogen synthase kinase-3 beta (Homo sapiens) (UniProt P49841). Put plainly: Inhibition of human GSK3beta at 1 uM using RBER-CHKtide as substrate in presence of 33P-ATP by ProQinase assay.
The target in assay [22] is Death-associated protein kinase 2 (Homo sapiens) (UniProt Q9UIK4). The assay can be described thus: Inhibition of human DAPK2 at 1 uM using RB-S6P as substrate in presence of 33P-ATP by ProQinase assay.
Assay [23] has as its target Sphingosine kinase 1 (Homo sapiens) (UniProt Q9NYA1). The assay can be described thus: Inhibition of recombinant human N-terminal His6-tagged SPHK1 (1 to 384 residues) expressed in baculovirus expression system at 1 uM using sphingosine as substrate incubated for 40 mins by ADP-Glo assay.
Assay [24] concerns the target Phosphatidylinositol 4-kinase beta (Homo sapiens, UniProt Q9UBF8). Put plainly: Inhibition of human PI4KB using PI as substrate by ADP-Glo assay.

Molecules are shown by their SMILES. pIC50: −log10 of the molar value. The source made the active and inactive calls. No cut-off for these calls is given here.

Sequence of MAP/microtubule affinity-regulating kinase 4 (Homo sapiens) (Q96L34 whole entry, the tested form may be a part): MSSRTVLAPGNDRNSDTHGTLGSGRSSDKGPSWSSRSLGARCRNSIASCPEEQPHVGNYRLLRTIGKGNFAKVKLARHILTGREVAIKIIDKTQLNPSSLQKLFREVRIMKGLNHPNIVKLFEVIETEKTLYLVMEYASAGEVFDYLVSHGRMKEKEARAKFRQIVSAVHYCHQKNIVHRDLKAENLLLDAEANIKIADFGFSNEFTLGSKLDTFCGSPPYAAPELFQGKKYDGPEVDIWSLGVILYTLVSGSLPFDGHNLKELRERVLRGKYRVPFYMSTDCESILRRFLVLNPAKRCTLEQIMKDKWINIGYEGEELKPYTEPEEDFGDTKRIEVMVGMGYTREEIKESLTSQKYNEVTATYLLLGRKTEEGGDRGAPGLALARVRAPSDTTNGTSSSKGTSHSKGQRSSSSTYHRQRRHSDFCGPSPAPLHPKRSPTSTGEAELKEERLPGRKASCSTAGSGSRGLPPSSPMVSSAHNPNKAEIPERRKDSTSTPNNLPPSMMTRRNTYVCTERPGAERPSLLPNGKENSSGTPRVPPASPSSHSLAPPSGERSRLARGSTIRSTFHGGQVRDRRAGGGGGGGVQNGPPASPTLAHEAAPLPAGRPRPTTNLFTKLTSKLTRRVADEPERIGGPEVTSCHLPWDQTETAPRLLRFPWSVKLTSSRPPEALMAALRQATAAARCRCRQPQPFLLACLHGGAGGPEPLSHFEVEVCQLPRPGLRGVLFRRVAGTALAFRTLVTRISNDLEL

With `CC(C)(O)CNc1ncc(-c2ccnc(Nc3ccnc(Cl)c3)n2)c(CC2CC2)n1`, the Activity in [1] came out at 133%; in assay [2] it was 122%; in assay [3] it was 116%; in assay [4], 115%; in [5], 112%; in assay [6] it was 112%. Further, the Activity was determined as 108% in [7], 106% in assay [8] and 103% in assay [9]. For the same compound, the inhibition result in [10], in assay [11], in [12], in assay [13], in [14] and in assay [15] was “inactive” in each case. Besides, the inhibition entry in [16], in [17], in assay [18], in assay [19], in assay [20] and in assay [21] was “inactive” each time. For the same compound, the inhibition entry in assay [22] and in assay [23] was “inactive” throughout. For the same compound, the pIC50 in [24] was under 5.00.
